From US20130261077A1 (priority 2012, published 2013)

Biological target: T1, FimH-CRD (Escherichia coli, UniProt P08191)
T1 construct: The first 177 amino acids of the FimH protein; thrombin tag (printed as 'fusion protein with thrombin') (cleaved yes); made in house; host or cells: bacteria (pET21b plasmid)
Experiment: Competitive binding assay by fluorescence polarization, assay 1 (compounds prepared by manual serial dilution)
Procedure: The first 177 amino acids of the FimH protein were expressed as a fusion protein with thrombin in a pET21b plasmid in bacteria. This FimH protein sequence contains the carbohydrate recognition domain (CRD) and shall be termed FimH-CRD. Following bacterial expression of the protein, the FimH-CRD protein was purified to homogeneity and the thrombin tag removed by protease cleavage. A competitive binding assay by fluorescence polarization was performed using 5 nM of the Alexa 647 mannoside probe and 60 nM of the FimH-CRD. The samples are assayed in a low volume 384 well microtiter plate in a final volume of 20 μl. The final assay buffer conditions are the following, 50 mM Tris-Cl, ph 7.0, 100 mM NaCl, 1 mM EDTA, 5 mM β-mercaptoethanol, 0.05% BSA and 2.5% DMSO. Two assays are performed for FimH, termed assay 1 or assay 2. The assay conditions are the same for both assays except the following: assay 1 has compounds prepared by manual dilution in a serial dilution factor with 12-point dose response while assay 2 has compounds prepared by a robotics system also through a serial dilution factor (12 point dose response) and initially prepared in duplicate in 384 well-Corning polypropylene round bottom plates. The assay 2 plates have compound which is then frozen and must be thawed prior to use. Initially the Alexa 647 probe and the FimH-CRD are added to the assay buffer and then 0.5 μl of test compound (assay 1 or 2) between 0.4 nM to 75 μM final concentration are added (12 point titration with 3-fold serial dilution). Control wells for the Alexa 647 probe are prepared with the same conditions except for the addition of the FimH-CRD protein. Plates are then incubated for 5 hrs at room temperature in the dark and under humid conditions to prevent drying. Plates are read using the SpectraMax Paradigm multi-mode plate reader and the appropriate fluorescent polarization detection cartridge (Alexa-647).
Alexa 647 mannoside probe is prepared using the similar procedure reported for FAM mannoside (Han, Z. et. al., 2010, J. Med. Chem., 53, 4779) and is described in the scheme below.
To a blue colored stirred solution of (2S,3S,4S,5S,6R)-2-(4-aminobutoxy)-6-(hydroxymethyl)tetrahydropyran-3,4,5-triol (2.21 mg, 0.009 mmol) and the (2E)-2-[(2E,4E)-5-[3,3-dimethyl-5-sulfonato-1-(3-sulfonatopropyl)indol-1-ium-2-yl]penta-2,4-dienylidene]-3-[6-(2,5-dioxopyrrolidin-1-yl)oxy-6-oxo-hexyl]-3-methyl-1-(3-sulfonatopropyl)indoline-5-sulfonate (Potassium Ion (3)) (4.9 mg, 0.0044 mmol) in DMF (44 μL) is added Et3N (5.4 mg, 7.0 μL, 0.053 mmol) at RT. The solution is stirred at room temperature over night, concentrated, dissolved in water and purified on 12 g C-18 silica gel cartridge on Isolera system using acetonitrile in water (0 to 40%, 10 CV) and followed by lyophilization to afford Alexa 647 mannoside probe (3.3 mg, 34%) as deep blue solid.
The Kd values of the compounds are determined from dose response curves using twelve concentrations per compound in duplicate. Curves are fitted to data points using Fluorescence Polarization competitive displacement analysis, and Kds are interpolated from the resulting curves using GraphPad Prism software, version […] (GraphPad software Inc., San Diego, Calif., USA).

T1 sequence (P08191 22-177): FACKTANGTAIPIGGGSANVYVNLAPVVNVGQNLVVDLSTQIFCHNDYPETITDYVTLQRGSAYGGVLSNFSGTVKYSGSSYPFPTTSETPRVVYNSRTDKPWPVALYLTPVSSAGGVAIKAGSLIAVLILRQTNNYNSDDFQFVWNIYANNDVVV

COc1ccc([C@H]2O[C@H](CO)[C@@H](O)[C@H](O)[C@@H]2O)cc1O [Compound 61, (2R,3S,4R,5S,6R)-2-(3-hydroxy-4-methoxy-phenyl)-6-(hydroxymethyl)tetrahydropyran-3,4,5-triol]
IC50: 42 nM | Kd: 17.2 ± 10.7 nM

CNC(=O)c1cc(C(=O)NC)cc(-c2cccc([C@H]3O[C@H](CO)[C@@H](O)[C@H](O)[C@@H]3O)c2)c1 [Compound 63, N^3,N^5-dimethyl-3′-((2R,3S,4R,5S,6R)-3,4,5-trihydroxy-6-(hydroxymethyl)tetrahydro-2H-pyran-2-yl)-[1,1′-biphenyl]-3,5-dicarboxamide]
IC50: 19 nM | Kd: 25.4 ± 14.4 nM

COC(=O)Cc1cccc(-c2cccc([C@H]3O[C@H](CO)[C@@H](O)[C@H](O)[C@@H]3O)c2)c1 [Compound 65, Methyl 2-(3′-((2R,3S,4R,5S,6R)-3,4,5-trihydroxy-6-(hydroxymethyl)tetrahydro-2H-pyran-2-yl)-[1,1′-biphenyl]-3-yl)acetate]
IC50: 18 nM | Kd: 5.2 ± 0.1 nM

COC(=O)Cc1ccccc1-c1cccc([C@H]2O[C@H](CO)[C@@H](O)[C@H](O)[C@@H]2O)c1 [Compound 66, Methyl 2-(3′-((2R,3S,4R,5S,6R)-3,4,5-trihydroxy-6-(hydroxymethyl)tetrahydro-2H-pyran-2-yl)-[1,1′-biphenyl]-2-yl)acetate]
IC50: 24 nM | Kd: 14.3 ± 6.6 nM

OC[C@H]1O[C@H](c2ccc(Cl)c(O)c2)[C@@H](O)[C@@H](O)[C@@H]1O [Compound 67, (2R,3S,4R,5S,6R)-2-(4-chloro-3-hydroxyphenyl)-6-(hydroxymethyl)tetrahydro-2H-pyran-3,4,5-triol]
IC50: 106 nM | Kd: 21 ± 4.3 nM

O=C(Nc1cccs1)Oc1cccc([C@H]2O[C@H](CO)[C@@H](O)[C@H](O)[C@@H]2O)c1 [Compound 69, 3-((2R,3S,4R,5S,6R)-3,4,5-trihydroxy-6-(hydroxymethyl)tetrahydro-2H-pyran-2-yl)phenyl thiophen-2-ylcarbamate]
IC50: 66 nM | Kd: 13.1 ± 0.7 nM

O=C(Nc1ccc(F)cc1)Oc1cccc([C@H]2O[C@H](CO)[C@@H](O)[C@H](O)[C@@H]2O)c1 [Compound 70, 3-((2R,3S,4R,5S,6R)-3,4,5-trihydroxy-6-(hydroxymethyl)tetrahydro-2H-pyran-2-yl)phenyl (4-fluorophenyl)carbamate]
IC50: 46 nM | Kd: 11.6 ± 4.2 nM

CN(C)c1ccc(NC(=O)Oc2cccc([C@H]3O[C@H](CO)[C@@H](O)[C@H](O)[C@@H]3O)c2)cc1 [Compound 71, 3-((2R,3S,4R,5S,6R)-3,4,5-trihydroxy-6-(hydroxymethyl)tetrahydro-2H-pyran-2-yl)phenyl (4-(dimethylamino)phenyl)carbamate]
IC50: 67 nM | Kd: 14.6 ± 2.3 nM

C[C@@H](NC(=O)Oc1cccc([C@H]2O[C@H](CO)[C@@H](O)[C@H](O)[C@@H]2O)c1)c1ccccc1 [Compound 72, 3-((2R,3S,4R,5S,6R)-3,4,5-trihydroxy-6-(hydroxymethyl)tetrahydro-2H-pyran-2-yl)phenyl (R)-1-phenylethylcarbamate]
IC50: 60 nM | Kd: 16.2 ± 5.4 nM

OC[C@H]1O[C@H](c2cccc(C#Cc3cc(Cl)cc(Cl)c3)c2)[C@@H](O)[C@@H](O)[C@@H]1O [Compound 92, (2R,3S,4R,5S,6R)-2-[3-[2-(3,5-Dichlorophenyl)ethynyl]phenyl]-6-(hydroxymethyl)tetrahydropyran-3,4,5-triol]
Kd: 24.9 ± 11.3 nM

COc1ccc([C@H]2O[C@H](CO)[C@@H](O)[C@H](O)[C@@H]2O)cc1-c1ccc(-c2nnc(C)o2)cc1 [Compound 132, (2R,3S,4R,5S,6R)-2-(hydroxymethyl)-6-[4-methoxy-3-[4-(5-methyl-1,3,4-oxadiazol-2-yl)phenyl]phenyl]tetrahydropyran-3,4,5-triol]
Kd: 6.9 ± 0.02 nM

Cc1nnc(-c2ccc(C#Cc3cccc([C@H]4O[C@H](CO)[C@@H](O)[C@H](O)[C@@H]4O)c3)cc2)o1 [Compound 133, (2R,3S,4R,5S,6R)-2-(hydroxymethyl)-6-[3-[2-[4-(5-methyl-1,3,4-oxadiazol-2-yl)phenyl]ethynyl]phenyl]tetrahydropyran-3,4,5-triol]
Kd: 6.1 ± 1.4 nM

Cc1nnc(-c2ccc(C#Cc3ccc([C@H]4O[C@H](CO)[C@@H](O)[C@H](O)[C@@H]4O)cc3)cc2)o1 [Compound 134, (2R,3S,4R,5S,6R)-2-(hydroxymethyl)-6-[4-[2-[4-(5-methyl-1,3,4-oxadiazol-2-yl)phenyl]ethynyl]phenyl]tetrahydropyran-3,4,5-triol]
Kd: 54.2 ± 17 nM

OC[C@H]1O[C@H](c2cccc(/C=C\c3ccccc3)c2)[C@@H](O)[C@@H](O)[C@@H]1O [Compound 139, (2R,3S,4R,5S,6R)-2-(hydroxymethyl)-6-[3-[(Z)-styryl]phenyl]tetrahydropyran-3,4,5-triol]
Kd: < 5 nM

CNC(=O)c1cccc(COc2ccc(C3O[C@H](CO)[C@@H](O)[C@H](O)[C@@H]3O)cc2)c1 (stereo partly drawn) [Compound 248]
Kd: 14 ± 8.4 nM

CNC(=O)c1ccc2nc(Oc3cccc([C@H]4O[C@H](CO)[C@@H](O)[C@H](O)[C@@H]4O)c3)sc2c1 [Compound 255, N-methyl-2-[3-[(2R,3S,4R,5S,6R)-3,4,5-trihydroxy-6-(hydroxymethyl)tetrahydropyran-2-yl]phenoxy]-1,3-benzothiazole-6-carboxamide]
Kd: 8.7 ± 2 nM

OC[C@H]1O[C@H](O[C@@H]2[C@H](O)[C@@H](c3cccc(O)c3)O[C@H](CO)[C@H]2O)[C@@H](O)[C@@H](O)[C@@H]1O [Compound 265, (2R,3S,4S,5S,6R)-2-[(2R,3R,4R,5R,6R)-3,5-Dihydroxy-2-(hydroxymethyl)-6-(3-hydroxyphenyl)tetrahydropyran-4-yl]oxy-6-(hydroxymethyl)tetrahydropyran-3,4,5-triol]
IC50: 162 nM | Kd: 52.1 ± 13.8 nM

OC[C@H]1O[C@H](O[C@@H]2[C@H](O)[C@@H](c3ccc(O)cc3)O[C@H](CO)[C@H]2O)[C@@H](O)[C@@H](O)[C@@H]1O [Compound 266, (2R,3S,4S,5S,6R)-2-[(2R,3R,4R,5R,6R)-3,5-Dihydroxy-2-(hydroxymethyl)-6-(4-hydroxyphenyl)tetrahydropyran-4-yl]oxy-6-(hydroxymethyl)tetrahydropyran-3,4,5-triol]
IC50: 59 nM | Kd: 21.3 ± 6.2 nM

CNC(=O)c1ccc(Oc2cccc([C@H]3O[C@H](CO)[C@@H](O)[C@H](O[C@H]4O[C@H](CO)[C@@H](O)[C@H](O)[C@@H]4O)[C@@H]3O)c2)cc1 [Compound 267, 4-[3-[(2R,3R,4R,5R,6R)-3,5-Dihydroxy-6-(hydroxymethyl)-4-[(2R,3S,4S,5S,6R)-3,4,5-trihydroxy-6-(hydroxymethyl)tetrahydropyran-2-yl]oxy-tetrahydropyran-2-yl]phenoxy]-N-methyl-benzamide]
IC50: 68 nM | Kd: 12.8 ± 8 nM

CNC(=O)c1cccc(Oc2ccc([C@H]3O[C@H](CO)[C@@H](O)[C@H](O[C@H]4O[C@H](CO)[C@@H](O)[C@H](O)[C@@H]4O)[C@@H]3O)cc2)c1 [Compound 268, 3-[4-[(2R,3R,4R,5R,6R)-3,5-Dihydroxy-6-(hydroxymethyl)-4-[(2R,3S,4S,5S,6R)-3,4,5-trihydroxy-6-(hydroxymethyl)tetrahydropyran-2-yl]oxy-tetrahydropyran-2-yl]phenoxy]-N-methyl-benzamide]
IC50: 77 nM | Kd: 19 ± 3.8 nM
